The record followed here is US10442804B2, “Compounds for the treatment of hepatitis B virus infection” (Gilead Sciences, Inc., priority 2017, dated 2019).

In data set [1] the test system is HBV-infected NTCP-HepG2 cells, secreted HBsAg. The data set is described as follows: microbe, parasite or virus in culture. It is filed as cell-based, hepatitis B virus (genotype D, AD38-derived). As to conditions: Hepatitis B virus, 120 h, secreted HBsAg in supernatant after 5 days; geometric mean of minimum four determinations; read-out: NTCP HBsAg EC50. The method, then: NTCP-HepG2 Antiviral Assay for Secreted HBsAg
HepG2 cells stably expressing sodium-taurocholate cotransporting polypeptide (NTCP-HepG2) were grown in Dulbecco's Modified Eagle Medium (DMEM) without sodium pyruvate (Thermo Fisher Scientific, Waltham, Mass.) supplemented with 10% fetal bovine serum, 2 mM L-glutamine, 1% penicillin/streptomycin, and 0.25 mg/mL G-418. NTCP-HepG2 cells were infected with 4000 genome equivalent per cell of genotype D (AD38-derived) HBV in DMEM without sodium pyruvate (Thermo Fisher Scientific, Waltham, Mass.) supplemented with 2% fetal bovine serum, 2 mM L-glutamine, 1% penicillin/streptomycin, 2.5% DMSO, and 4% PEG 8000 (Promega, Madison, Wis.). After 24-hour incubation, cells were washed three times with OptiMEM (Thermo Fisher Scientific, Waltham, Mass.) and fed with fresh DMEM without sodium pyruvate (Thermo Fisher Scientific, Waltham, Mass.) supplemented with 2% fetal bovine serum, 2 mM L-glutamine, 1% penicillin/streptomycin, and 2.5% DMSO. At 4 days after infection, infected NTCP-HepG2 cells were seeded on 384-well plates pre-coated with collagen at a density of 20000 cells per well containing serially diluted compounds of the present disclosure or DMSO (0.5%) in a final volume of 80 μl of DMEM without sodium pyruvate (Thermo Fisher Scientific, Waltham, Mass.) supplemented with 2% fetal bovine serum, 2 mM L-glutamine, 1% penicillin/streptomycin, and 1% DMSO. After an incubation time of 5 days, cell culture supernatant was collected and measured for HBsAg.
Secreted HBsAg in the supernatant were measured using a multiplex chemiluminescent MSD assay (Meso Scale Discovery, Rockville, Md.) using capture and detection antibody pairs specific for HBsAg. The EC50 values were calculated from the fit of the dose-response curves to a four-parameter equation. All EC50 values represent geometric mean values of a minimum of four determinations.

Another data set can be described thus: MT-4 cytotoxicity assay. The settings on record: human. It is filed as cell-based, human. The method, then:
Biological Example 2: MT-4 Cytotoxicity Assay
The MT-4 cell line (HTLV-1 transformed, human T lymphoblastoid cells) was obtained from the NIH AIDS Reagent program (Bethesda, Md.). MT-4 cells were maintained in RPMI-1640 media (Thermo Fisher Scientific, Waltham, Mass.) supplemented with 10% fetal bovine serum, 100 Units/mL penicillin, and 100 μg/mL streptomycin. For the MT-4 cytotoxicity assay, 0.4 μL of serially diluted solutions of certain compounds disclosed herein were added to 40 μL of cell maintenance media in 384-well black, solid bottom plate using a Biomek FX workstation (Beckman Coulter, Brea, Calif.). Two thousand cells in 35 μL were added to each well using a Biotek uFlow Workstation (Biotek, Winooski, Vt.). Each assay plate contained 10 μM puromycin (final concentration) and 0.5% DMSO in RPMI-1640 media as positive and negative controls, respectively. Assay plates were incubated for five days at 37° C. in an incubator set at 5% CO2 and 90% humidity. After five days, 22 μL of Cell Titer Glo reagent (Promega, Madison, Wis.) was added to the assay plates with a Biotek uFlow Workstation. Plates were subsequently placed on an Envision Plate Reader (Perkin Elmer, Waltham, Mass.) for five minutes before the luminescence signal was read. CC50 values were defined as the compound concentration that caused a 50% decrease in luminescence signal, and were calculated by non-linear regression using Pipeline Pilot software by applying a four parameter fit equation (Accelrys, San Diego, Calif.) and are reported in the following Table 1.

Where [2] appears, read: five days, Cell Titer Glo luminescence, read-out: MT-4 CC50.

Like-named read-outs stand apart in the source and are kept apart here. Where only a bound is given, the exact number is not on record here.

With `CC1(C)CC[C@@H]2c3cc(OCCCOC(F)(F)F)c(Cl)cc3-c3cc(=O)c(C(=O)O)cn3N21` [Example 55, (R)-11-chloro-3,3-dimethyl-8-oxo-12-(3-(trifluoromethoxy)propoxy)-2,3,8,13b-tetrahydro-1H-pyrido[2,1-a]pyrrolo[1,2-c]phthalazine-7-carboxylic acid], in data set [1], the EC50 stood at 3.7 nM. In addition, in the data set “MT-4 cytotoxicity assay” (setting [2]), the CC50 at 5 days came out at 6800 nM.

For `COCC12CC(COc3cc4c(cc3OC(F)F)-c3cc(=O)c(C(=O)O)cn3N3[C@@H]4CCC3(C)C)(C1)C2` [Compound 105, (R)-11-(difluoromethoxy)-12-((3-(methoxymethyl)bicyclo[1.1.1]pentan-1-yl)methoxy)-3,3-dimethyl-8-oxo-2,3,8,13b-tetrahydro-1H-pyrido[2,1-a]pyrrolo[1,2-c]phthalazine-7-carboxylic acid], the EC50 in data set [1] was 1.4 nM. The CC50 at 5 days in the data set “MT-4 cytotoxicity assay” (setting [2]) was more than 10000 nM.

For `COCCCOc1cc2c(cc1OCC(F)F)-c1cc(=O)c(C(=O)O)cn1N1[C@@H]2CCC1(C)C` [Example 27, (R)-11-(2,2-difluoroethoxy)-12-(3-methoxypropoxy)-3,3-dimethyl-8-oxo-2,3,8,13b-tetrahydro-1H-pyrido[2,1-a]pyrrolo[1,2-c]phthalazine-7-carboxylic acid], the EC50 in data set [1] was 3.7 nM. In addition, the CC50 at 5 days in the data set “MT-4 cytotoxicity assay” (setting [2]) was more than 10000 nM.

With `COCCCOc1cc2c(cc1Cl)-c1cc(=O)c(C(=O)O)cn1N1[C@H]2COCC1(C)C` (single isomer, unassigned) [Example 39], the EC50 in data set [1] is 680 nM. In “MT-4 cytotoxicity assay” (setting [2]), the CC50 at 5 days was more than 10000 nM.

In the case of `COCCCOc1cc2c(cc1OC(C)(C)C)-c1cc(=O)c(C(=O)O)cn1N1[C@@H]2CCC1(C)C` [Example 25, (R)-11-(tert-butoxy)-12-(3-methoxypropoxy)-3,3-dimethyl-8-oxo-2,3,8,13b-tetrahydro-1H-pyrido[2,1-a]pyrrolo[1,2-c]phthalazine-7-carboxylic acid], the EC50 in data set [1] was 160 nM. For the same molecule, the CC50 at 5 days in the data set “MT-4 cytotoxicity assay” (setting [2]) is more than 10000 nM.

As to `CC1(COc2cc3c(cc2Cl)-c2cc(=O)c(C(=O)O)cn2N2[C@@H]3CCC2(C)C)COC1` [Example 49, (R)-11-chloro-3,3-dimethyl-12-((3-methyloxetan-3-yl)methoxy)-8-oxo-2,3,8,13b-tetrahydro-1H-pyrido[2,1-a]pyrrolo[1,2-c]phthalazine-7-carboxylic acid], the EC50 in data set [1] came to 3.8 nM. For the same molecule, the CC50 at 5 days in “MT-4 cytotoxicity assay” (setting [2]) is more than 10000 nM.

On to `COCCCOc1cc2c(cc1OC(F)F)-c1cc(=O)c(C(=O)O)cn1N1[C@H]2CCC1(C)C` (single isomer, unassigned) [Example 20], for which the EC50 in data set [1] stood at 43 nM. Besides, the CC50 at 5 days in “MT-4 cytotoxicity assay” (setting [2]) was more than 10000 nM.

Consider `CCOCCCOc1cc2c(cc1OC)-c1cc(=O)c(C(=O)O)cn1N1[C@@H]2CCC1(C)C` [Example 62, (R)-12-(3-ethoxypropoxy)-11-methoxy-3,3-dimethyl-8-oxo-2,3,8,13b-tetrahydro-1H-pyrido[2,1-a]pyrrolo[1,2-c]phthalazine-7-carboxylic acid], for which the EC50 in data set [1] came to 0.67 nM. In addition, the CC50 at 5 days in “MT-4 cytotoxicity assay” (setting [2]) is more than 10000 nM.

Consider `COCCCOc1c(OC)cc2c(c1Br)[C@H]1CCC(C)(C)N1n1cc(C(=O)O)c(=O)cc1-2` [Example 40, (R)-13-bromo-11-methoxy-12-(3-methoxypropoxy)-3,3-dimethyl-8-oxo-2,3,8,13b-tetrahydro-1H-pyrido[2,1-a]pyrrolo[1,2-c]phthalazine-7-carboxylic acid], for which, in data set [1], the EC50 was found to be 360 nM. In addition, the CC50 at 5 days in “MT-4 cytotoxicity assay” (setting [2]) worked out at 8800 nM.

For `COCc1cc2c(cc1N1CC[C@@H](COC)C1)[C@H]1CCC(C)(C)N1n1cc(C(=O)O)c(=O)cc1-2` [Compound 117, (R)-11-(methoxymethyl)-12-((R)-3-(methoxymethyl)pyrrolidin-1-yl)-3,3-dimethyl-8-oxo-2,3,8,13b-tetrahydro-1H-pyrido[2,1-a]pyrrolo[1,2-c]phthalazine-7-carboxylic acid], the EC50 in data set [1] was 5.3 nM. Also, the CC50 at 5 days in the data set “MT-4 cytotoxicity assay” (setting [2]) was 9700 nM.

With `COc1cc2c(cc1OCC1COC1)[C@H]1CCC(C)(C)N1n1cc(C(=O)O)c(=O)cc1-2` [Example 16, (R)-11-methoxy-3,3-dimethyl-12-(oxetan-3-ylmethoxy)-8-oxo-2,3,8,13b-tetrahydro-1H-pyrido[2,1-a]pyrrolo[1,2-c]phthalazine-7-carboxylic acid], the EC50 in data set [1] is 7.8 nM. The CC50 at 5 days in the data set “MT-4 cytotoxicity assay” (setting [2]) was more than 10000 nM.

As to `CC1(C)CC[C@@H]2c3cc(C#CC(C)(C)S(C)(=O)=O)c(OC(F)F)cc3-c3cc(=O)c(C(=O)O)cn3N21` [Compound 112, (R)-11-(difluoromethoxy)-3,3-dimethyl-12-(3-methyl-3-(methylsulfonyl)but-1-yn-1-yl)-8-oxo-2,3,8,13b-tetrahydro-1H-pyrido[2,1-a]pyrrolo[1,2-c]phthalazine-7-carboxylic acid], the EC50 in data set [1] came to 2.7 nM. Moreover, the CC50 at 5 days in “MT-4 cytotoxicity assay” (setting [2]) is more than 10000 nM.

In the case of `COc1cc2c(cc1OCC1CC(=O)C1)[C@H]1CCC(C)(C)N1n1cc(C(=O)O)c(=O)cc1-2` [Example 37], the concentration for a half-maximal effect (EC50) in data set [1] came out at 4 nM. Further, the CC50 at 5 days in the data set “MT-4 cytotoxicity assay” (setting [2]) is more than 10000 nM.

For the molecule `COCCCOc1cc2c(cc1Cl)-c1cc(=O)c(C(=O)O)cn1N1[C@@H]2CCC12CC2` (single isomer, unassigned) [Example 56], the EC50 in data set [1] was 1.5 nM. In “MT-4 cytotoxicity assay” (MT-4 CC50), this molecule returned a CC50 at 5 days of more than 10000 nM.

For the molecule `COCc1cc2c(cc1OCCn1nc3ccccn3c1=O)[C@H]1CCC(C)(C)N1n1cc(C(=O)O)c(=O)cc1-2` [Example 95, (R)-11-(methoxymethyl)-3,3-dimethyl-8-oxo-12-(2-(3-oxo-[1,2,4]triazolo[4,3-a]pyridin-2(3H)-yl)ethoxy)-2,3,8,13b-tetrahydro-1H-pyrido[2,1-a]pyrrolo[1,2-c]phthalazine-7-carboxylic acid], the EC50 in data set [1] turned out to be 4.6 nM. Further, the CC50 at 5 days in the data set “MT-4 cytotoxicity assay” (setting [2]) was more than 10000 nM.

With `COC(C)(C)C#Cc1cc2c(cc1Cl)-c1cc(=O)c(C(=O)O)cn1N1[C@@H]2CCC12CC2` [Example 85, (R)-11′-chloro-12′-(3-methoxy-3-methylbut-1-yn-1-yl)-8′-oxo-1′,2′,8′,13b′-tetrahydrospiro[cyclopropane-1,3′-pyrido[2,1-a]pyrrolo[1,2-c]phthalazine]-7′-carboxylic acid], the EC50 in data set [1] was 4.1 nM. In “MT-4 cytotoxicity assay” (MT-4 CC50), this molecule returned a CC50 at 5 days of more than 10000 nM.

As to `CC1(C)CC[C@@H]2c3cc(OCC4CC(F)(F)C4)c(Cl)cc3-c3cc(=O)c(C(=O)O)cn3N21` [Example 54, (R)-11-chloro-12-((3,3-difluorocyclobutyl)methoxy)-3,3-dimethyl-8-oxo-2,3,8,13b-tetrahydro-1H-pyrido[2,1-a]pyrrolo[1,2-c]phthalazine-7-carboxylic acid], the EC50 in data set [1] came to 0.75 nM. For the same molecule, in “MT-4 cytotoxicity assay” (setting [2]), the CC50 at 5 days amounted to 5300 nM.

Consider `COCCCOc1cc2c(cc1Cl)-c1cc(=O)c(C(=O)O)cn1N1CC(C)(C)CCC21` (stereo not shown) [Example 17, 13-chloro-12-(3-methoxypropoxy)-8,8-dimethyl-2-oxo-2,7,8,9,10,10a-hexahydrodipyrido[2,1-a:1′,2′-c]phthalazine-3-carboxylic acid], for which the EC50 in data set [1] was 110 nM. In addition, the CC50 at 5 days in the data set “MT-4 cytotoxicity assay” (setting [2]) is more than 10000 nM.

For the molecule `COCCCOc1cc2c(cc1Cl)-c1cc(=O)c(C(=O)O)cn1N1CCCC(C)(C)C21` (stereo not shown) [Example 38, 13-chloro-12-(3-methoxypropoxy)-10,10-dimethyl-2-oxo-2,7,8,9,10,10a-hexahydrodipyrido[2,1-a:1′,2′-c]phthalazine-3-carboxylic acid], the EC50 in data set [1] was 27 nM. Besides, the CC50 at 5 days in the data set “MT-4 cytotoxicity assay” (setting [2]) was found to be 9900 nM.

Consider `COCCCOc1cc2c(cc1Cl)-c1cc(=O)c(C(=O)O)cn1N1C2CCC12CC2` (stereo not shown) [Example 59, 11′-chloro-12′-(3-methoxypropoxy)-8′-oxo-1′,2′,8′,13b′-tetrahydrospiro[cyclopropane-1,3′-pyrido[2,1-a]pyrrolo[1,2-c]phthalazine]-7′-carboxylic acid], for which the EC50 in data set [1] came to 6 nM. Also, the CC50 at 5 days in “MT-4 cytotoxicity assay” (MT-4 CC50) is more than 10000 nM.
